Assay [1] in a line: Calcium phosphate binding by CPP and synthetic homologues and analogues. To be noted: for Vca: calcium bound per peptide; for VPi: inorganic phosphate bound per peptide; for Ca bound per molecule / Pi bound per molecule: maximal binding, 0.1% w/v peptide; for Ca/P: ratio of bound Ca to bound Pi. An excerpt:
Casein phosphopeptides containing the Ser(P) cluster, i.e. the core sequence motif Ser(P)-Ser(P)-Ser(P)-Glu-Glu-(SEQ ID NO: 5), have a marked ability to stabilize calcium phosphate in solution. Solutions containing 0.1% w/v αs1(59-79) (SEQ ID NO: 1) at various pH, calcium and phosphate concentrations, but constant ionic strengths were used to characterize the peptide's interaction with calcium phosphate.
The ion activity products for the various calcium phosphate phases [hydroxyapatite (HA); octacalcium phosphate (OCP); tricalcium phosphate (TCP); amorphous calcium phosphate (ACP); and dicalcium phosphate dihydrate (DCPD) were determined from the free calcium and phosphate concentrations at each pH using a computer program that calculates the ion activity coefficients through the use of the expanded Debye-Hückel equation and takes into account the ion pairs CaHPO4^o, CaH2PO4^+, CaPO4^−and CaOH^+ the dissociation of H3PO4 and H2O and the ionic strength. […] The peptide αs1(59-79) (SEQ ID NO: 1) binds to forming ACP clusters producing a metastable solution preventing ACP growth to the critical size required for nucleation and precipitation. The binding of αs1(59-79) (SEQ ID NO: 1) to ACP results in the formation of colloidal complexes with the unit formula [αs1(59-79) (SEQ ID NO: 1)(ACP)8]n where n is equal to or greater than one. It is likely that the predominant form is n=6 as αs1(59-79) (SEQ ID NO: 1) cross-linked with glutaraldehyde in the presence of ACP runs as a hexamer on polyacrylamide gel electrophoresis.
The relationship between CPP structure and interaction with amorphous calcium phosphate was investigated using a series of synthetic peptide homologues and analogues indicated in Table 1.

Assay [2] in a line: CPP and synthetic peptide binding to HA at 37° C. To be noted: affinity constant. The source says:
Similarly, we investigated the adsorption of the CPP and synthetic homologues and analogues onto HA (Table 2).

The values below come from US7312193B2, “Calcium phosphopeptide complexes” (The University of Melbourne, priority 1997, dated 2007).

Square brackets hold non-standard residues; d marks the D form. Ends that are not written are not given here. pT = C[C@@H](OP(=O)(O)O)[C@H](N)C(=O)O; pS = N[C@@H](COP(=O)(O)O)C(=O)O

Take “AcGlu-Ser(P)-Ile-Ser(P)-Ser(P)-Ser(P)-Glu-GluNHMe [αs1(63-70)]”: in assay [1], the Vca was determined as 12 mol/mol, the VPi came to 8 mol/mol, the “Ca bound per molecule” value turned out to be 12 per molecule and the “Pi bound per molecule” value was found to be 8 per molecule. For the same substance, the Ca/P in assay [1] is reported as 1.5. Also, the K in assay [2] was 10,370 ml/μmol.

AΣAE (A[pS]AE): in assay [1], the Vca is given as 0 mol/mol and the VPi was determined as 0 mol/mol.

With AΣAΣAE (A[pS]A[pS]AE), in assay [1], the Vca stood at 0 mol/mol and the VPi was determined as 0 mol/mol.

For AΣAΣAΣAE (A[pS]A[pS]A[pS]AE), in assay [1], the Vca is 2 mol/mol, the VPi was determined as 1 mol/mol and the Ca/P worked out at 1.5.

AΣAΣAΣAΣAE (A[pS]A[pS]A[pS]A[pS]AE): in assay [1], the Vca is reported as 6 mol/mol, the VPi amounted to 4 mol/mol and the Ca/P is 1.5.

For DΣΣEE (D[pS][pS]EE), in assay [1], the Vca amounted to 2 mol/mol, the VPi was determined as 1 mol/mol and the Ca/P worked out at 2.0. Further, the K in assay [2] is 6,579 ml/μmol.

Turning to EAIAΣAEA (EAIA[pS]AEA), in assay [1], the Vca was found to be 0 mol/mol and the VPi is listed as 0 mol/mol.

Turning to EΣLΣΣΣEE [β(14-21)], in assay [1], the Vca is 12 mol/mol, the VPi was found to be 8 mol/mol and the Ca/P was found to be 1.5.

Take EΣΣEE (E[pS][pS]EE): in assay [1], the Vca is recorded as 2 mol/mol, the VPi is listed as 1 mol/mol and the Ca/P was found to be 2.0. In addition, in assay [2], the K is 1,513 ml/μmol.

For “Gln-Met-Glu-Ala-Glu (QMEAE) [αs1(59-63)]”, in assay [1], the “calcium phosphate binding” value is “did not bind calcium phosphate”, the Vca is 0 mol/mol and the VPi stood at 0 mol/mol.

Consider IAΣAEA (IA[pS]AEA), for which, in assay [1], the Vca is 0 mol/mol and the VPi turned out to be 0 mol/mol.

Turning to IVPN[pS]VEQ [αs1(71-78)], in assay [1], the “calcium phosphate binding” value was “did not bind calcium phosphate”, the Vca turned out to be 0 mol/mol and the VPi is on record as 0 mol/mol.

As for “QMEAEΣIΣΣΣEEIVPNΣVEQK (QMEAE[pS]I[pS][pS][pS]EEIVPN[pS]VEQK; listed as Bos sp.) [αs1(59-79), tryptic casein phosphopeptide]”, in assay [1], the Vca was 24 mol/mol, the VPi is on record as 16 mol/mol, the “Ca bound per molecule” value came to 24 per molecule and the “Pi bound per molecule” value is reported as 16 per molecule. In addition, the Ca/P in assay [1] is on record as 1.5. The same substance had a K in assay [2] of 415 mL/µmol.

Regarding “RELEELNVPGEIVEΣLΣΣΣEESITR (RELEELNVPGEIVE[pS]L[pS][pS][pS]EESITR; listed as Bos sp.) [β(1-25), tryptic casein phosphopeptide]”, in assay [1], the Vca stood at 24 mol/mol, the VPi stood at 16 mol/mol and the Ca/P is 1.5.

As for SΣΣEE (S[pS][pS]EE), in assay [1], the Vca is 2 mol/mol, the VPi was found to be 1 mol/mol and the Ca/P was 2.0.

In the case of SθθEE (S[pT][pT]EE), in assay [1], the Vca turned out to be 2 mol/mol, the VPi came out at 1 mol/mol and the Ca/P is reported as 2.0.

For the substance TθθEE (T[pT][pT]EE), the K in assay [2] is listed as 1,013 ml/μmol.

As for [pS][pS][pS]EE [ΣΣΣEE], in assay [1], the Vca is given as 9 mol/mol, the VPi was found to be 6 mol/mol and the Ca/P is recorded as 1.5. The K in assay [2] is on record as 12,845 ml/μmol.

Consider θTθEE ([pT]T[pT]EE), for which the K in assay [2] was 837 mL/µmol.

Take θθTEE: the K in assay [2] is listed as 1,799 ml/μmol.
